Assay results as given in patent publication US11696917B2, “Agent enhancing antitumor effect using pyrazolo[3,4-d]pyrimidine compound” (TAIHO PHARMACEUTICAL CO., LTD., priority 2017, dated 2023).

Columns and labels:
[1] = tested on: SK-BR-3 (human breast cancer); assay: Combination of Compound 1 and other antitumor agents (in vitro), CellTiter-Glo, median effect method; format: cell-based
Experimental: The supplier of each reagent, the suppliers of tumor cell lines, the media used, and the numbers of cells to be inoculated are shown in the tables below.
The cells were inoculated at 20 μL/well to a 384-well culture plate (Corning Inc.). The plate inoculated with the cells were cultured in an incubator set to 37° C. and 5% CO2. On the day following inoculation, each of mixed solutions of Compound 1 and each other antitumor agent at varying combinations of concentrations was added to the cells. Specifically, 8 serial dilutions (including (0 nM)) of Compound 1 and 10 serial dilutions (including (0 nM)) of the other antitumor agent were prepared using Leibovitz's L-15 medium containing 10% FBS, or ATCC formulated RPMI-1640 medium containing 10% FBS. Drug solutions in which equal amounts of the respective serial dilutions of the compounds were dispensed were mixed at a ratio of 1:1 to prepare a total of 80 mixed drug solutions including every combination. Each of these mixed drug solutions was added at 5 μL/well (N=4) to the plate, followed by further culture for 3 days under conditions of 37° C. and 5% CO2.
Three days later, CellTiter-Glo™ 2.0 Reagent (Promega Corporation) was added thereto at 25 μL/well, and chemiluminescence was measured using a plate reader (EnSpire® Multimode Plate Reader, PerkinElmer Japan Co., Ltd.).
The enhancement of an effect by combined use of the drugs was evaluated according to a method known in the art (a method described in Trends Pharmacol. Sci., 4, 450-454, 1983 or Pharmacol Rev., 58 (3), 621-81, 2006).
An average value from 4 wells of each combination was calculated from the obtained data, and a cell survival rate normalized against a control supplemented with a medium containing a vehicle was calculated. A Fa (fraction of affect) value was calculated by subtracting the cell survival rate from 1. Median effect analysis software CalcuSyn 2.0 (CalcuSyn, Inc.) for calculation by the median effect method was used in the calculation of CI.
As for the combinations of the concentrations of both the drugs for calculating CI, a Fa value closer to 1 presumably means a concentration range in which one of the drugs had too strong an effect, and a Fa value closer to 0 presumably means a concentration range in which any of the drugs had too weak an effect. Since these concentration ranges were not appropriate for the discussion of a synergistic effect, combinations that satisfied 0.2 S Fa 0.8 were extracted from the combinations of the respective concentrations of Compound 1 and the other antitumor agent on the basis of the calculated Fa value.
An effect of combined use was determined as shown in the table below (Pharmacol Rev., 58 (3), p. 621-81, 2006).

[2] = tested on: Human stomach cancer cells 4-1st; assay: Combination of Compound 1 and trastuzumab (in vivo), subcutaneous tumor in nude mice; design: species or system nude mouse (BALB/cAJcl-nu/nu); details: for T/C (%): Day 15; for BWC (%) Day 15 Mean: mouse, in vivo, po
Source text: Human stomach cancer cells 4-1st were obtained as fragment tumor from the Central Institute for Experimental Animals. Tumor was excised approximately one month after subcutaneous transplantation and passage in a nude mouse (BALB/cAJcl-nu/nu, CLEA Japan, Inc.), and prepared into a fragment of approximately 2 mm square. A transplantation needle was packed with one fragment and subcutaneously inserted from around the right most distal rib of a nude mouse. After entrance to the right back, the inner cylinder was pushed to eject and transplant the tumor. Electronic calipers were used in tumor size measurement, and the major axis and the minor axis of the tumor of each mouse were measured by sandwiching the tumor between the measuring surfaces of the electronic calipers (Days 0, 4, 8, 11 and 15). A tumor volume (TV) was calculated from the major axis and the minor axis. A relative tumor volume (RTV) and a rate of change in relative tumor volume (T/C) were calculated from the calculated tumor volume. TV, RTV, and T/C were calculated according to the following expressions. Tumor volume TV (mm^3)=(Major axis, mm)×(Minor axis, mm)×(Minor axis, mm)/2 Relative tumor volume RTV=(TV on the day of measurement)/(TV on the day of grouping) Rate of change in relative tumor volume T/C (%)=(Average RTV of an administration group)/(Average RTV of a control group)×100
An electronic balance for animals was used in body weight measurement. A rate of change in body weight on day n (BWCn) was calculated from the body weight on day n (BWn) according to the following expression. Rate of change in body weight BWCn (%)=(BWn−BW0)/BW0×100
Nude mice whose TV reached 100 to 300 mm^3 were selected, and six animals were assigned to each group by the equal number method (MiSTAT (ver. 2.0)) such that average TV was equalized among groups.
The presence or absence of an effect of combined use and toxicity were determined from tumor sizes and body weights on the day of grouping (Day 0) and the day of evaluation (Day 15). During the administration period, the body weights were measured every day for the calculation of the amount of a dosing solution.

[3] = Compound 1 0.412 nM + Cisplatin 6185 nM, ratio 1:15030, SK-BR-3
[4] = Compound 1 1.24 nM + Cisplatin 6185 nM, ratio 1:5010, SK-BR-3
[5] = Compound 1 3.70 nM + Cisplatin 687 nM, ratio 1:186, SK-BR-3
[6] = Compound 1 3.70 nM + Cisplatin 2062 nM, ratio 1:557, SK-BR-3
[7] = Compound 1 3.70 nM + Cisplatin 6185 nM, ratio 1:1670, SK-BR-3
[8] = Compound 1 7.5 mg/kg/day p.o. Days 1-14
[9] = Compound 1 15 mg/kg/day p.o. Days 1-14

## C=CC(=O)N1CCC[C@@H](n2nc(C(=O)Nc3ccc(CC(=O)N(C)C)c(C)c3C)c3c(N)ncnc32)C1 [Compound 1, (R)-1-(1-acryloylpiperidin-3-yl)-4-amino-N-(4-(2-(dimethylamino)-2-oxoethyl)-2,3-dimethylphenyl)-1H-pyrazolo[3,4-d]pyrimidine-3-carboxamide]
[1]; [3]
  CI: 0.86
  Fa: 0.50
[1]; [4]
  CI: 0.84
  Fa: 0.55
[1]; [5]
  CI: 0.78
  Fa: 0.22
[1]; [6]
  CI: 0.79
  Fa: 0.37
[1]; [7]
  CI: 0.63
  Fa: 0.65
[2]; [8]
  RTV Day 15 Mean + SD: 6.55 ± 0.37
  T/C (%): 49.0%
[2]; [9]
  RTV Day 15 Mean + SD: 3.77 ± 0.32
  T/C (%): 28.2%
[2]; 7.5 mg/kg/day
  BWC (%) Day 15 Mean: 5.06%
[2]; 15 mg/kg/day
  BWC (%) Day 15 Mean: 0.82%
